Data: patent US20060199819A1, “Inhibition of cyclooxygenase-2 activity” (Celgene Corporation, priority 2000, published 2006)

How the values were obtained:
PGE2 biosynthesis = assay: LPS-mediated PGE2 biosynthesis in macrophages (RAW 264.7 cells); type: cell-based; conditions: macrophages in RAW 264.7 cells, as little as 50 μM
Source text: (§1) Cyclooxygenase-2, the rate-limiting enzyme in prostaglandin biosynthesis, is expressed in tumor associated macrophages. Because prostaglandins, notable PGE2, are important mediators of inflammatory response and angiogenesis, inhibition of their biosynthesis can be used to combat these effects. Inhibition of the cyclooxygenase-2 protein by a test compound can be conveniently observed in cells in which induction of the protein has been induced by lipopolysaccharide (LPS). Thus it is known that LPS enhances cyclooxygenase-2 transcription and this effect thus can be used as convenient model for evaluating cyclooxygenase-2 inhibition.
(§2) In one experiment, LPS-mediated induction of cyclooxygenase-2, as well as PGE2 biosynthesis, in macrophages in RAW 264.7 cells was blocked by as little as 50 μM of 3-phthalimido-2,6-dioxopiperidine. It appears, however, that LPS-enhanced cyclooxy-genase-2 transcription is not itself effected by the amide or imide. That is, the amide or imide has no effect on the induction of cyclooxygenase-2 by LPS. On the other hand, the amide or imide enhances the degradation of cyclooxygenase-2 messenger RNA. Consequently while not wishing to be bound by any theory, it appears the inhibitory effect of the amide or imide operates on the activity of cyclooxygenase-2 by some post-transcriptional mechanism.

cyclooxygenase-2 = assay: LPS-mediated induction of cyclooxygenase-2 in macrophages (RAW 264.7 cells); type: cell-based; conditions: macrophages in RAW 264.7 cells; as little as 50 μM
Source text: as §1, §2

O=C1CCC(N2C(=O)c3ccccc3C2=O)C(=O)N1 (centres unmarked) [3-phthalimido-2,6-dioxopiperidine]
PGE2 biosynthesis (PGE2 biosynthesis): blocked
LPS-mediated induction of cyclooxygenase-2 (cyclooxygenase-2): blocked
